Results: US12662491B2 (Redona Therapeutics, Inc., priority 2020, dated 2026)

target: T1, Zcchc11 enzyme (Homo sapiens, UniProt Q5TAX3); assay: TUTase assay (Zcchc11 assay, Lin28a-dependent polyuridylation of pre-let-7); assay type: biochemical; settings: Lin28a-dependent Zcchc11 (Z11) TUTase assay; read-out: Potency Lin28a-dep Z11 IC50
T1 construct: made in house; host or cells: HEK293 cells (Zcchc11); E. coli Rosetta II (LIN28A)
T1 sequence (Q5TAX3 212-1420): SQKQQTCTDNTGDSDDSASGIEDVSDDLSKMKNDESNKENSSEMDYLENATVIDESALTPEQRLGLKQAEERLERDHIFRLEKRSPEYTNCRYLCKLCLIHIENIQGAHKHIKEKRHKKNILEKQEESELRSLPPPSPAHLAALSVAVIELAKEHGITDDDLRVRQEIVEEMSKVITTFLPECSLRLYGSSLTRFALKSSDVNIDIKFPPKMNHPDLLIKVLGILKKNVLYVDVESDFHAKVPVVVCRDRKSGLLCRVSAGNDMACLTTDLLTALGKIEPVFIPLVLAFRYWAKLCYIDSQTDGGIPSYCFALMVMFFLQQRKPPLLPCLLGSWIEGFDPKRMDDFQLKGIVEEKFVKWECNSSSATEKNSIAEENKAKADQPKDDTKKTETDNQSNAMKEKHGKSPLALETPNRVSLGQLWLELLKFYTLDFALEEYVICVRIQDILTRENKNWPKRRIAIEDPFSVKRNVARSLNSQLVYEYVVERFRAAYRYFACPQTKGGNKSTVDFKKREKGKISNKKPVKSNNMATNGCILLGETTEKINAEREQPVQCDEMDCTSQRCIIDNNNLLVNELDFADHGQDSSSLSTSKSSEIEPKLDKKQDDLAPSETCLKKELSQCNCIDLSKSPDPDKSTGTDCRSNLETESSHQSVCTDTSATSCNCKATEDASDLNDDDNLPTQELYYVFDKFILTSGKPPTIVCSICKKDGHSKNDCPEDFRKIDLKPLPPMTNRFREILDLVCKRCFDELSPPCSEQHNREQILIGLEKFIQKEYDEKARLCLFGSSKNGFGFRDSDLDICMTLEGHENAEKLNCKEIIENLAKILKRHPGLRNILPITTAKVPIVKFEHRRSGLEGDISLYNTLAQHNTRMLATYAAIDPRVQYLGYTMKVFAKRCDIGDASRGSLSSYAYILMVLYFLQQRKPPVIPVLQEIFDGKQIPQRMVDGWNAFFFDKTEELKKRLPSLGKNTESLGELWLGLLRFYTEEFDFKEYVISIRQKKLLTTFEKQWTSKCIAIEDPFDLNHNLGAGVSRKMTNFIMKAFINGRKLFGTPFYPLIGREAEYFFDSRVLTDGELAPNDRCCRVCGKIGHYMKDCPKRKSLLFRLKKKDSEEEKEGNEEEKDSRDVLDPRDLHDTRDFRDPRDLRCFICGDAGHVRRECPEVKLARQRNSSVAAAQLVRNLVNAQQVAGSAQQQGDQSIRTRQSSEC
How it was run: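 Potency is measured as inhibition of LIN28A-driven U-tail addition to 2 nM pre-let-7 by 0.2 nM HEK293-derived Zcchc11 fragment with 5 uM UTP at room temperature. Tail growth appears as fluorescein quenching by an annealing rhodamine-A20 probe.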

Row | SMILES | IC50
1 | CN(C)[C@H]1CCN(c2ccc(-n3cc(C(=O)O)c(=O)c4cc(C#N)c(N5CCC[C@@H]5COc5ncccc5Cl)cc43)cn2)C1 [Example 562, 7-((R)-2-(((3-chloropyridin-2-yl)oxy)methyl)pyrrolidin-1-yl)-6-cyano-1-(6-((S)-3-(dimethylamino)pyrrolidin-1-yl)pyridin-3-yl)-4-oxo-1,4-dihydroquinoline-3-carboxylic acid] | ≤ 1000 nM
2 | CN(C)[C@@H]1CCN(c2ccc(-n3cc(C(=O)O)c(=O)c4cc(C#N)c(N5CCC[C@@H]5COc5ncccc5Cl)cc43)cn2)C1 [Example 563, 7-((R)-2-(((3-chloropyridin-2-yl)oxy)methyl)pyrrolidin-1-yl)-6-cyano-1-(6-((R)-3-(dimethylamino)pyrrolidin-1-yl)pyridin-3-yl)-4-oxo-1,4-dihydroquinoline-3-carboxylic acid] | ≤ 1000 nM
3 | CN(C)C1CN(c2cc(-n3cc(C(=O)O)c(=O)c4cc(Cl)c(N5CCC[C@@H]5COc5ccccn5)cc43)ccn2)C1 [Example 564, (R)-6-chloro-1-(2-(3-(dimethylamino)azetidin-1-yl)pyridin-4-yl)-4-oxo-7-(2-((pyridin-2-yloxy)methyl)pyrrolidin-1-yl)-1,4-dihydroquinoline-3-carboxylic acid] | ≤ 1000 nM
4 | O=C(O)c1cn(-c2c[nH]cn2)c2cc(N3CCC[C@@H]3COc3ncccc3Cl)c(Cl)cc2c1=O [Example 565, (R)-6-chloro-7-(2-(((3-chloropyridin-2-yl)oxy)methyl)pyrrolidin-1-yl)-1-(1H-imidazol-4-yl)-4-oxo-1,4-dihydroquinoline-3-carboxylic acid] | ≤ 1000 nM
5 | Cn1cnc(-n2cc(C(=O)O)c(=O)c3cc(Cl)c(N4CCC[C@@H]4COc4ncccc4Cl)cc32)c1 [Example 566, (R)-6-chloro-7-(2-(((3-chloropyridin-2-yl)oxy)methyl)pyrrolidin-1-yl)-1-(1-methyl-1H-imidazol-4-yl)-4-oxo-1,4-dihydroquinoline-3-carboxylic acid] | ≤ 1000 nM
6 | Cn1cncc1-n1cc(C(=O)O)c(=O)c2cc(Cl)c(N3CCC[C@@H]3COc3ncccc3Cl)cc21 [Example 567, (R)-6-chloro-7-(2-(((3-chloropyridin-2-yl)oxy)methyl)pyrrolidin-1-yl)-1-(1-methyl-1H-imidazol-5-yl)-4-oxo-1,4-dihydroquinoline-3-carboxylic acid] | ≤ 1000 nM
7 | Cn1ccnc1-n1cc(C(=O)O)c(=O)c2cc(Cl)c(N3CCC[C@@H]3COc3ncccc3Cl)cc21 [Example 568, (R)-6-chloro-7-(2-(((3-chloropyridin-2-yl)oxy)methyl)pyrrolidin-1-yl)-1-(1-methyl-1H-imidazol-2-yl)-4-oxo-1,4-dihydroquinoline-3-carboxylic acid] | ≤ 1000 nM
8 | N#CCn1cc(C(=O)O)c(=O)c2cc(Cl)c(N3CCC[C@@H]3COc3ncccc3Cl)cc21 [Example 569, (R)-6-chloro-7-(2-(((3-chloropyridin-2-yl)oxy)methyl)pyrrolidin-1-yl)-1-(cyanomethyl)-4-oxo-1,4-dihydroquinoline-3-carboxylic acid] | ≤ 1000 nM
9 | CN(C)CCNc1ccc(-n2cc(C(=O)O)c(=O)c3cc(C#N)c(N4CCC[C@@H]4COc4ncccc4Cl)cc32)cn1 [Example 570, (R)-7-(2-(((3-chloropyridin-2-yl)oxy)methyl)pyrrolidin-1-yl)-6-cyano-1-(6-((2-(dimethylamino)ethyl)amino)pyridin-3-yl)-4-oxo-1,4-dihydroquinoline-3-carboxylic acid] | ≤ 1000 nM
10 | N#Cc1cc2c(=O)c(C(=O)O)cn(-c3cnn(CCN4CCC4)c3)c2cc1N1CCC[C@@H]1COc1ncccc1Cl [Example 571, (R)-1-(1-(2-(azetidin-1-yl)ethyl)-1H-pyrazol-4-yl)-7-(2-(((3-chloropyridin-2-yl)oxy)methyl)pyrrolidin-1-yl)-6-cyano-4-oxo-1,4-dihydroquinoline-3-carboxylic acid] | ≤ 1000 nM
11 | CN(C)C1CN(c2ccc(-n3cc(C(=O)O)c(=O)c4cc(C#N)c(N5C[C@@H](F)C[C@@H]5COc5ncccc5Cl)cc43)cn2)C1 [Example 572, 7-((2R,4S)-2-(((3-chloropyridin-2-yl)oxy)methyl)-4-fluoropyrrolidin-1-yl)-6-cyano-1-(6-(3-(dimethylamino)azetidin-1-yl)pyridin-3-yl)-4-oxo-1,4-dihydroquinoline-3-carboxylic acid] | ≤ 1000 nM
12 | Cn1cc(Cn2cc(C(=O)O)c(=O)c3cc(Cl)c(N4CCC[C@@H]4COc4ncccc4Cl)cc32)cn1 [Example 573, (R)-6-chloro-7-(2-(((3-chloropyridin-2-yl)oxy)methyl)pyrrolidin-1-yl)-1-((1-methyl-1H-pyrazol-4-yl)methyl)-4-oxo-1,4-dihydroquinoline-3-carboxylic acid] | ≤ 1000 nM
13 | NC(=O)Cn1cc(C(=O)O)c(=O)c2cc(F)c(N3CCC[C@@H]3COc3ccccn3)cc21 [Example 574, (R)-1-(2-amino-2-oxoethyl)-6-fluoro-4-oxo-7-(2-((pyridin-2-yloxy)methyl)pyrrolidin-1-yl)-1,4-dihydroquinoline-3-carboxylic acid] | 1000 to 10000 nM
14 | CC(C)(O)c1ccc(-n2cc(C(=O)O)c(=O)c3cc(C#N)c(N4CCC[C@@H]4COc4ncccc4Cl)cc32)cn1 [Example 575, (R)-7-(2-(((3-chloropyridin-2-yl)oxy)methyl)pyrrolidin-1-yl)-6-cyano-1-(6-(2-hydroxypropan-2-yl)pyridin-3-yl)-4-oxo-1,4-dihydroquinoline-3-carboxylic acid] | ≤ 1000 nM
15 | O=C(O)c1cn(Cc2ccccn2)c2cc(N3CCC[C@@H]3COc3ncccc3Cl)c(Cl)cc2c1=O [Example 576, (R)-6-chloro-7-(2-(((3-chloropyridin-2-yl)oxy)methyl)pyrrolidin-1-yl)-4-oxo-1-(pyridin-2-ylmethyl)-1,4-dihydroquinoline-3-carboxylic acid] | ≤ 1000 nM
16 | O=C(O)c1cn(Cc2ccncc2)c2cc(N3CCC[C@@H]3COc3ncccc3Cl)c(Cl)cc2c1=O [Example 577, (R)-6-chloro-7-(2-(((3-chloropyridin-2-yl)oxy)methyl)pyrrolidin-1-yl)-4-oxo-1-(pyridin-4-ylmethyl)-1,4-dihydroquinoline-3-carboxylic acid] | 1000 to 10000 nM
17 | CN(C)C1CN(c2ccc(-n3cc(C(=O)O)c(=O)c4cc(Cl)c(N5CCC[C@@H]5CCc5ccccn5)cc43)cn2)C1 [Example 578, (R)-6-chloro-1-(6-(3-(dimethylamino)azetidin-1-yl)pyridin-3-yl)-4-oxo-7-(2-(2-(pyridin-2-yl)ethyl)pyrrolidin-1-yl)-1,4-dihydroquinoline-3-carboxylic acid] | 1000 to 10000 nM
18 | CN(C)C1CN(c2ccc(-n3cc(C(=O)O)c(=O)c4cc(Cl)c(N5CCC[C@@H]5COc5ccnn5C)cc43)cn2)C1 [Example 580, (R)-6-chloro-1-(6-(3-(dimethylamino)azetidin-1-yl)pyridin-3-yl)-7-(2-(((1-methyl-1H-pyrazol-5-yl)oxy)methyl)pyrrolidin-1-yl)-4-oxo-1,4-dihydroquinoline-3-carboxylic acid] | ≤ 1000 nM
19 | O=C(O)c1cn(Cc2cn[nH]c2)c2cc(N3CCC[C@@H]3COc3ncccc3Cl)c(Cl)cc2c1=O [Example 581, (R)-1-((1H-pyrazol-4-yl)methyl)-6-chloro-7-(2-(((3-chloropyridin-2-yl)oxy)methyl)pyrrolidin-1-yl)-4-oxo-1,4-dihydroquinoline-3-carboxylic acid] | 1000 to 10000 nM
20 | CN(C)CCn1cc(Cn2cc(C(=O)O)c(=O)c3cc(Cl)c(N4CCC[C@@H]4COc4ncccc4Cl)cc32)cn1 [Example 582, (R)-6-chloro-7-(2-(((3-chloropyridin-2-yl)oxy)methyl)pyrrolidin-1-yl)-1-((1-(2-(dimethylamino)ethyl)-1H-pyrazol-4-yl)methyl)-4-oxo-1,4-dihydroquinoline-3-carboxylic acid] | 1000 to 10000 nM
21 | CC(c1ccccc1)n1cc(C(=O)O)c(=O)c2cc(Cl)c(N3CCC[C@@H]3COc3ncccc3Cl)cc21 (stereo partly drawn) [Example 583, 6-chloro-7-((R)-2-(((3-chloropyridin-2-yl)oxy)methyl)pyrrolidin-1-yl)-4-oxo-1-(1-phentylethyl)-1,4-dihydroquinoline-3-carboxylic acid] | 1000 to 10000 nM
